According to patent US8957070B2, “Glucokinase activator compounds, methods of activating glucokinase and methods of treating diabetes and obesity” (Takeda Pharmaceutical Company Limited, priority 2005, dated 2015):

Legend:
[1] = target: T1, GST-hLGK1 (human liver type GK) (Homo sapiens, UniProt P35557); experiment: Determination of GK activity value (Mant-ATP conversion, capillary electrophoresis); assay type: biochemical; conditions: concentration necessary for activating 50% of the maximum GK activity value, 37° C., 60 min, D-glucose added
T1 construct: with a BamHI site added to immediately before the initiation codon; made in house; host or cells: Escherichia coli BL21
T1 sequence (P35557 1-464 isoform P35557-3): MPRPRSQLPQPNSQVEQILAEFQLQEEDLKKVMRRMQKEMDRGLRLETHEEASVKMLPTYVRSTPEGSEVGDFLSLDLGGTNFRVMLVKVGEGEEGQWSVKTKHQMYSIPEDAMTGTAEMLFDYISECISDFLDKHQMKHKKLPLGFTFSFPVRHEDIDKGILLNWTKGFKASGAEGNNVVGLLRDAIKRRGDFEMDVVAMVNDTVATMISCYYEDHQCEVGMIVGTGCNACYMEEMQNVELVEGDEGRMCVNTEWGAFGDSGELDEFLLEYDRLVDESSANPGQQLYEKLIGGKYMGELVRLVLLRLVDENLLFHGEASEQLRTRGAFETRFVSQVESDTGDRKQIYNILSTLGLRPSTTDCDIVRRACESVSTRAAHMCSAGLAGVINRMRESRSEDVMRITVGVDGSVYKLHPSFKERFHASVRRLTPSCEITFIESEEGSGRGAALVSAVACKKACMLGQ
Experimental: A solution (5 μL) of test compound in 50% dimethyl sulfoxide was added to each well of 384 well black plate (Nalge Nunc International K.K.). Then, a solution (35 μL) obtained by diluting GST-hLGK1 obtained in Reference Example 2A with measurement buffer (containing 50 mM HEPES (pH 7.4), 200 mM KCl, 5 mM MgCl2, 2.5 mM DTT and 50 μM 2′-(or -3′)-O—(N-methylanthraniloyl)adenosine 5′-triphosphate (Mant-ATP) (Jena Bioscience GmbH)) to 6 μg/mL was added to each well.
Each well was stood at 37° C. for 10 min, and 25 mM D-glucose solution (10 μL) was added to start the reaction.
Each well after the reaction was stood at 37° C. for 60 min, and the reaction was quenched by adding 25 μL of a quenching solution (containing 200 mM HEPES (pH 7.4), 20 mM MgCl2, 200 mM EDTA, 0.03% Triton-X 100, 0.3% Coating 3 reagent (Caliper Life Sciences, Inc.)).
Mant-ATP (substrate) and Mant-ADP (reaction resultant product) were separated from each well after the reaction by a microchip type capillary electrophoresis apparatus 250 HTS (Caliper Life Sciences, Inc.). The reaction rate [(reaction resultant product peak height)/(reaction resultant product peak height+substrate peak height)×100(%)] was calculated from the ratio of the substrate peak height and reaction resultant product peak height obtained by fluorescence detection (excitation wavelength 355 nm, measurement wavelength 460 nm) and used as the index of GK activity.
As a control group, the reaction rate was calculated in the same manner as above except that “solution in 50% dimethyl sulfoxide” was used instead of “solution of test compound in 50% dimethyl sulfoxide”.
The percentage obtained by dividing the reaction rate of the well added with the test compound (test compound addition group) by the reaction rate of the well added with 50% solution in dimethyl sulfoxide alone (control group) was taken as the GK activity value of the test compound, and the concentration of the test compound necessary for activating 50% of the maximum value of the activity value is shown as EC50 value.

melting point: 197 to 198 °C
EC50 [1]: 29 nM
Structure (SMILES): CN(c1ccc(F)c2cc(-c3nccs3)[nH]c12)S(=O)(=O)c1cccs1 [Example 182, N-[4-fluoro-2-(1,3-thiazol-2-yl)-1H-indol-7-yl]-N-methylthiophene-2-sulfonamide]
